{"source": "paper PMC10763724", "about": "(Molecular cancer therapeutics, 2019)", "key": {"[1]": {"tested_on": "ALDH1A1", "details": "cited from earlier work"}, "[2]": {"tested_on": "ALDH2", "details": "read-out: IC50 for ALDH2; cited from earlier work"}, "[3]": {"tested_on": "HNSCC xenograft models", "details": "24 mg/kg/day, implantable osmotic mini pumps; cited from earlier work"}, "[4]": {"tested_on": "ALDH3A1", "details": "cited from earlier work"}, "[5]": {"target": "T1, ALDH2 (Homo sapiens, UniProt P05091)", "T1 sequence (P05091 18-517)": "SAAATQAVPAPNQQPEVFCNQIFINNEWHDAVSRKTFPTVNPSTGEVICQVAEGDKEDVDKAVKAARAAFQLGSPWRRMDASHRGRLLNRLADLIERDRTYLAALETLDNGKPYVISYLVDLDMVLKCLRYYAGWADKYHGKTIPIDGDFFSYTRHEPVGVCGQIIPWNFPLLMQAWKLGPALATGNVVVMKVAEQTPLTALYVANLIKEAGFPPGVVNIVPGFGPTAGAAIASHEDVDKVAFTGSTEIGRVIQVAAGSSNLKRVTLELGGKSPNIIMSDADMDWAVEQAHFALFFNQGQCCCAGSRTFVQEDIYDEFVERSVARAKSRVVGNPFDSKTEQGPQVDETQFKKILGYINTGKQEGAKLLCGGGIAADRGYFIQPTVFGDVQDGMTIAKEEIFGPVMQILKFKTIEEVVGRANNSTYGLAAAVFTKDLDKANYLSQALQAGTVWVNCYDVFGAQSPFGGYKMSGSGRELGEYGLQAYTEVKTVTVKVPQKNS", "assay": "ALDH2 isoform-specific enzyme assay", "assay_type": "biochemical", "details": "read-out: IC50s ALDH2; acetaldehyde substrate, 15 minutes preincubation"}, "[6]": {"target": "T2, ALDH1A1 (Homo sapiens, UniProt P00352)", "T2 sequence (P00352 1-501)": "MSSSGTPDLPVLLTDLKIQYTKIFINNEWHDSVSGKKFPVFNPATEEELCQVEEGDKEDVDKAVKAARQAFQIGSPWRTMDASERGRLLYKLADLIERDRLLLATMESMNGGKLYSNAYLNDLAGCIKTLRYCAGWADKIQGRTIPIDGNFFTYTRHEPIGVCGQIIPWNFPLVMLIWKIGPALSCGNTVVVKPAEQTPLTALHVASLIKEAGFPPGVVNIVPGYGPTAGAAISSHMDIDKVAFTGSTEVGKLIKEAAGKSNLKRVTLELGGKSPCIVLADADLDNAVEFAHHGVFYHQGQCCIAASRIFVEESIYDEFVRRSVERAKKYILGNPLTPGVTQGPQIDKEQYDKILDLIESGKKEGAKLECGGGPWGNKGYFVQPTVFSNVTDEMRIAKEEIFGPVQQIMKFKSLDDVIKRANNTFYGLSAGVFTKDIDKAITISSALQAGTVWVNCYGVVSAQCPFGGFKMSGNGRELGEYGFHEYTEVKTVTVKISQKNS", "assay": "ALDH1A1 isoform-specific enzyme assay", "assay_type": "biochemical", "details": "15 minutes preincubation"}, "[7]": {"tested_on": "UACC 903 and 1205 Lu cells", "assay": "Lipid peroxidation", "assay_type": "cell-based, human", "details": "5 μmol/L, 24 hours"}, "[8]": {"tested_on": "UACC 903 and 1205 Lu cells", "assay": "ROS assay", "assay_type": "cell-based, human", "details": "5 μmol/L, 24 hours"}, "[9]": {"tested_on": "UACC 903 cells", "assay": "MTS cell viability assay, UACC 903", "assay_type": "cell-based, human", "details": "100 μmol/L, 72 hours"}, "[10]": {"target": "T3, ALDH3A1 (Homo sapiens, UniProt P30838)", "T3 sequence (P30838 1-453)": "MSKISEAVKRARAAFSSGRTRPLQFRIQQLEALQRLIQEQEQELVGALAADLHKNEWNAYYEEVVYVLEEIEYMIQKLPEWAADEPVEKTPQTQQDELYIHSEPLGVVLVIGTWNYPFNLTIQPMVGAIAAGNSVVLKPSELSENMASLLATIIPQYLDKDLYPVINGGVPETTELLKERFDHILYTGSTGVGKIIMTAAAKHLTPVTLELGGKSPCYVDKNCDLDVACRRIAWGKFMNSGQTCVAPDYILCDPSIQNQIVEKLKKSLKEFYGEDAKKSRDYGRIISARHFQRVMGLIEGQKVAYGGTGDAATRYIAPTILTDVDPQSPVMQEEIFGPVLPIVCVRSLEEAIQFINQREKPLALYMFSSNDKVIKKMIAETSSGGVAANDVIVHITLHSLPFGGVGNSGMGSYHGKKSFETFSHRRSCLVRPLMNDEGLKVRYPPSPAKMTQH", "assay": "ALDH3A1 isoform-specific enzyme assay", "assay_type": "biochemical", "details": "15 minutes preincubation"}, "[11]": {"tested_on": "total cellular ALDH activity, 1205 Lu cell lysates", "assay": "Total cellular ALDH activity assay, 1205 Lu cell lysates", "assay_type": "biochemical, human", "details": "1 μmol/L, 15 minutes"}, "[12]": {"tested_on": "total cellular ALDH activity, UACC 903 cell lysates", "assay": "Total cellular ALDH activity assay, UACC 903 cell lysates", "assay_type": "biochemical, human", "details": "1 μmol/L, 15 minutes"}}, "note": "Read-outs that look alike come from different tables or passages of the source."}
{"smiles": "CN(C)CCC(=O)c1ccc(Br)cc1", "note": "[Aldi-6]", "values": [{"measurement": "IC50", "setting": "[1]; read-out: IC50 for ALDH1A1", "value": 0.6, "unit": "µM"}, {"measurement": "IC50", "setting": "[2]", "value": 0.8, "unit": "µM"}, {"measurement": "tumor reduction in HNSCC xenograft models", "setting": "[3]", "value": 60, "unit": "%"}, {"measurement": "IC50", "setting": "[4]; read-out: IC50 for ALDH3A1", "value": 1, "unit": "µM"}]}
{"smiles": "Cc1nc2ccccc2n1S(=O)(=O)c1ccc(F)cc1", "note": "[CB7]", "values": [{"measurement": "IC50", "setting": "[5]", "value": 144, "unit": "µM"}, {"measurement": "IC50", "setting": "[6]; read-out: IC50s ALDH1A1, propionaldehyde substrate", "value": 139, "unit": "µM"}]}
{"smiles": "CCOC(=O)CSc1nc2c(sc3ccccc32)c(=O)n1CCCN1CCCC1", "note": "[CM037]", "values": [{"measurement": "lipid peroxidation and toxic aldehyde accumulation", "setting": "[7]", "value": "significantly increased lipid peroxidation and toxic aldehyde accumulation"}, {"measurement": "ROS levels", "setting": "[8]", "value": "significantly increased ROS levels"}]}
{"smiles": "CCN(CC)c1ccc(C=O)cc1", "note": "[DEAB]", "values": [{"measurement": "reduction of UACC 903 cell survival", "setting": "[9]", "value": 30, "unit": "%"}, {"measurement": "lipid peroxidation and toxic aldehyde accumulation", "setting": "[7]", "value": "significantly increased lipid peroxidation and toxic aldehyde accumulation"}, {"measurement": "IC50", "setting": "[10]; read-out: IC50s ALDH3A1, 4-nitrobenzaldehyde substrate", "value": 15.1, "unit": "µM"}, {"measurement": "ROS levels", "setting": "[8]", "value": "significantly increased ROS levels"}]}
{"smiles": "CSC(=O)C#CC(C)(C)N(C)C", "note": "[DIMATE, 4-dimethylamino-4-methyl–pent-2-ynthioic acid-S-methylester]", "values": [{"measurement": "IC50", "setting": "[1]; read-out: IC50 toward ALDH1A1", "value": 5, "unit": "µM"}, {"measurement": "IC50", "setting": "[4]; read-out: IC50 toward ALDH3A1", "value": 5, "unit": "µM"}]}
{"smiles": "O=C1Nc2ccccc2C1=O", "note": "[Isatin]", "values": [{"measurement": "reduction of total cellular ALDH activity, 1205 Lu", "setting": "[11]", "value": "ineffective"}, {"measurement": "reduction of total cellular ALDH activity, UACC 903", "setting": "[12]", "value": "ineffective"}, {"measurement": "IC50", "setting": "[10]; IC50s ALDH3A1, 4-nitrobenzaldehyde substrate", "value": 5.05, "unit": "µM"}, {"measurement": "IC50", "setting": "[6]; IC50s ALDH1A1, propionaldehyde substrate", "value": 15.6, "unit": "µM"}]}
